According to PubChem BioAssay AID1259407 (Chemical Carcinogenesis Research Information System (CCRIS), 2018):
Activity calls are given as the source filed them. No rule for the calls is given here.

Tested on: CCRIS mutagenicity, Ames/micronucleus/aberration tests
Test: CCRIS mutagenicity studies
[1] = Test System: AMES SALMONELLA TYPHIMURIUM, Strain/Indicator: TA98, Metabolic Activation: RAT, LIVER, S-9, AROCLOR 1254, Method: STANDARD PLATE
[2] = Test System: AMES SALMONELLA TYPHIMURIUM, Strain/Indicator: TA100, Metabolic Activation: RAT, LIVER, S-9, AROCLOR 1254, Method: STANDARD PLATE

With CC(=O)OO the mutagenic call (Test System: AMES SALMONELLA TYPHIMURIUM, Strain/Indicator: TA97, Metabolic Activation: HAMSTER, LIVER, S-9, AROCLOR 1254 (10 OR 30%), Method: PREINCUBATION) was “inactive; negative”, the mutagenic call (Test System: AMES SALMONELLA TYPHIMURIUM, Strain/Indicator: TA97, Metabolic Activation: NONE, Method: PREINCUBATION) was “inactive; negative” and the mutagenic call (Test System: AMES SALMONELLA TYPHIMURIUM, Strain/Indicator: TA97, Metabolic Activation: RAT, LIVER, S-9, AROCLOR 1254 (10 OR 30%), Method: PREINCUBATION) was “inactive; negative”. The mutagenic call (Test System: AMES SALMONELLA TYPHIMURIUM, Strain/Indicator: TA98, Metabolic Activation: HAMSTER, LIVER, S-9, AROCLOR 1254 (10 OR 30%), Method: PREINCUBATION) was “inactive; negative”, the mutagenic call (Test System: AMES SALMONELLA TYPHIMURIUM, Strain/Indicator: TA98, Metabolic Activation: NONE, Method: PREINCUBATION) was “inactive; negative” and the mutagenic call (Test System: AMES SALMONELLA TYPHIMURIUM, Strain/Indicator: TA98, Metabolic Activation: RAT, LIVER, S-9, AROCLOR 1254 (10 OR 30%), Method: PREINCUBATION) was “inactive; negative”. The mutagenic call (Test System: AMES SALMONELLA TYPHIMURIUM, Strain/Indicator: TA100, Metabolic Activation: HAMSTER, LIVER, S-9, AROCLOR 1254 (10 OR 30%), Method: PREINCUBATION) was “inactive; negative”, the mutagenic call (Test System: AMES SALMONELLA TYPHIMURIUM, Strain/Indicator: TA100, Metabolic Activation: NONE, Method: PREINCUBATION) was “inactive; negative” and the mutagenic call (Test System: AMES SALMONELLA TYPHIMURIUM, Strain/Indicator: TA100, Metabolic Activation: RAT, LIVER, S-9, AROCLOR 1254 (10 OR 30%), Method: PREINCUBATION) was “inactive; negative”. For the same compound, the mutagenic call (Test System: AMES SALMONELLA TYPHIMURIUM, Strain/Indicator: TA1535, Metabolic Activation: HAMSTER, LIVER, S-9, AROCLOR 1254 (10 OR 30%), Method: PREINCUBATION) was “inactive; negative”, the mutagenic call (Test System: AMES SALMONELLA TYPHIMURIUM, Strain/Indicator: TA1535, Metabolic Activation: NONE, Method: PREINCUBATION) was “inactive; negative” and the mutagenic call (Test System: AMES SALMONELLA TYPHIMURIUM, Strain/Indicator: TA1535, Metabolic Activation: RAT, LIVER, S-9, AROCLOR 1254 (10 OR 30%), Method: PREINCUBATION) was “inactive; negative”.
For O=S(=O)(NO)c1cccc2cccnc12, the mutagenic call (Test System: AMES SALMONELLA TYPHIMURIUM, Strain/Indicator: TA98, Metabolic Activation: NONE, Method: STANDARD PLATE) was “inactive; negative”, the mutagenic call [1] was “inactive; negative” and the mutagenic call (Test System: AMES SALMONELLA TYPHIMURIUM, Strain/Indicator: TA100, Metabolic Activation: NONE, Method: STANDARD PLATE) was “inactive; negative”. For the same compound, the mutagenic call [2] was “inactive; negative”, the mutagenic call (Test System: AMES SALMONELLA TYPHIMURIUM, Strain/Indicator: TA1535, Metabolic Activation: NONE, Method: STANDARD PLATE) was “inactive; negative” and the mutagenic call (Test System: AMES SALMONELLA TYPHIMURIUM, Strain/Indicator: TA1535, Metabolic Activation: RAT, LIVER, S-9, AROCLOR 1254, Method: STANDARD PLATE) was “inactive; negative”. For the same compound, the mutagenic call (Test System: AMES SALMONELLA TYPHIMURIUM, Strain/Indicator: TA1537, Metabolic Activation: NONE, Method: STANDARD PLATE) was “inactive; negative” and the mutagenic call (Test System: AMES SALMONELLA TYPHIMURIUM, Strain/Indicator: TA1537, Metabolic Activation: RAT, LIVER, S-9, AROCLOR 1254, Method: STANDARD PLATE) was “inactive; negative”.
O[C@H]1C=Cc2c(cc3ccc4cccc5ccc2c3c45)[C@@H]1O was tested, and the mutagenic call (Test System: AMES SALMONELLA TYPHIMURIUM, Strain/Indicator: TA97, Metabolic Activation: RAT, LIVER, S-9, AROCLOR 1254, Method: STANDARD PLATE) was “active; positive”, the mutagenic call (Test System: AMES SALMONELLA TYPHIMURIUM, Strain/Indicator: TA98, Metabolic Activation: NONE, Method: HOST-MEDIATED) was “active; positive” and the mutagenic call (Test System: AMES SALMONELLA TYPHIMURIUM, Strain/Indicator: TA98, Metabolic Activation: RAT, LIVER, 3-METHYLCHOLANTHRENE, Method: LIQUID SUSPENSION) was “active; positive”. For the same compound, the mutagenic call [1] was “active; positive”, the mutagenic call (Test System: AMES SALMONELLA TYPHIMURIUM, Strain/Indicator: TA98, Metabolic Activation: RAT, LIVER, S-9, Method: STANDARD PLATE) was “active; positive” and the mutagenic call (Test System: AMES SALMONELLA TYPHIMURIUM, Strain/Indicator: TA100, Metabolic Activation: EPITHELIAL CELL-MEDIATED, AROCLOR 1254, Method: PREINCUBATION) was “active; positive”. For the same compound, the mutagenic call (Test System: AMES SALMONELLA TYPHIMURIUM, Strain/Indicator: TA100, Metabolic Activation: EPITHELIAL CELL-MEDIATED, NADPH, Method: PREINCUBATION) was “active; positive”, the mutagenic call (Test System: AMES SALMONELLA TYPHIMURIUM, Strain/Indicator: TA100, Metabolic Activation: EPITHELIAL CELL-MEDIATED, Method: PREINCUBATION) was “active; positive” and the mutagenic call (Test System: AMES SALMONELLA TYPHIMURIUM, Strain/Indicator: TA100, Metabolic Activation: KUPFFER CELL-MEDIATED, AROCLOR 1254, Method: PREINCUBATION) was “active; positive”. The mutagenic call (Test System: AMES SALMONELLA TYPHIMURIUM, Strain/Indicator: TA100, Metabolic Activation: KUPFFER CELL-MEDIATED, NADPH, Method: PREINCUBATION) was “active; positive”, the mutagenic call (Test System: AMES SALMONELLA TYPHIMURIUM, Strain/Indicator: TA100, Metabolic Activation: KUPFFER CELL-MEDIATED, Method: PREINCUBATION) was “active; positive” and the mutagenic call (Test System: AMES SALMONELLA TYPHIMURIUM, Strain/Indicator: TA100, Metabolic Activation: NONE, Method: HOST-MEDIATED) was “active; positive”. For the same compound, the mutagenic call (Test System: AMES SALMONELLA TYPHIMURIUM, Strain/Indicator: TA100, Metabolic Activation: PARENCHYMAL CELL-MEDIATED, AROCLOR 1254, Method: PREINCUBATION) was “active; positive”, the mutagenic call (Test System: AMES SALMONELLA TYPHIMURIUM, Strain/Indicator: TA100, Metabolic Activation: PARENCHYMAL CELL-MEDIATED, NADPH, Method: PREINCUBATION) was “active; positive” and the mutagenic call (Test System: AMES SALMONELLA TYPHIMURIUM, Strain/Indicator: TA100, Metabolic Activation: PARENCHYMAL CELL-MEDIATED, Method: PREINCUBATION) was “active; positive”. For the same compound, the mutagenic call [2] was “active; positive”, the mutagenic call (Test System: AMES SALMONELLA TYPHIMURIUM, Strain/Indicator: TA100, Metabolic Activation: RAT, LIVER, S-9, Method: STANDARD PLATE) was “active; positive” and the mutagenic call (Test System: AMES SALMONELLA TYPHIMURIUM, Strain/Indicator: TA1537, Metabolic Activation: RAT, LIVER, S-9 AROCLOR 1254, Method: STANDARD PLATE) was “inactive; negative”. For the same compound, the mutagenic call (Test System: AMES SALMONELLA TYPHIMURIUM, Strain/Indicator: TA1538, Metabolic Activation: NONE, Method: HOST-MEDIATED) was “inactive; negative”, the mutagenic call (Test System: AMES SALMONELLA TYPHIMURIUM, Strain/Indicator: TA1538, Metabolic Activation: RAT, LIVER, S-9, Method: STANDARD PLATE) was “active; positive” and the mutagenic call (Test System: CHINESE HAMSTER V-79, Strain/Indicator: V-79/6-THIOGUANINE, Metabolic Activation: RAT, LIVER, S-9, AROCLOR 1254) was “active; positive”. The mutagenic call (Test System: CHINESE HAMSTER V-79, Strain/Indicator: V-79/8-AZAGUANINE, Metabolic Activation: CELL-MEDIATED, Method: STANDARD PLATE) was “active; positive”, the mutagenic call (Test System: CHINESE HAMSTER V-79, Strain/Indicator: V-79/8-AZAGUANINE, Metabolic Activation: NONE, Method: STANDARD PLATE) was “active; positive” and the mutagenic call (Test System: CHINESE HAMSTER V-79, Strain/Indicator: V-79/OUABAIN, Metabolic Activation: CELL-MEDIATED, Method: STANDARD PLATE) was “active; positive”. The mutagenic call (Test System: CHINESE HAMSTER V-79, Strain/Indicator: V-79/OUABAIN, Metabolic Activation: HAMSTER, EMBRYO, CELL-MEDIATED, Method: STANDARD PLATE) was “active; positive”.
For Oc1cc(Cl)cc(Cl)c1O, the mutagenic call (Test System: CHINESE HAMSTER V-79, Strain/Indicator: V-79/6-THIOGUANINE, Metabolic Activation: CELL MEDIATED, Method: STANDARD PLATE) was “inactive; negative” and the mutagenic call (Test System: CHINESE HAMSTER V-79, Strain/Indicator: V-79/6-THIOGUANINE, Metabolic Activation: NONE, Method: STANDARD PLATE) was “inactive; negative”.
With CCCn1cc2c3c(cccc31)C1C[C@@H](C)CN(C#N)[C@@H]1C2 (stereo partly drawn) the mutagenic call [2] was “active; positive”.
